Peptide text beside a SMILES is read from it. * marks the point of attachment. Cbz = O=C(OCc1ccccc1)*
Legend:
[1] = biological target: T1, ER membrane acetyl-CoA transport activity (Cricetulus griseus, UniProt G3H231); experiment: Acetyl-CoA transport assay into intact ER vesicles; type: biochemical, Chinese Hamster; details: ER vesicles, increasing concentrations of Coenzyme A
T1 sequence (G3H231 1-550): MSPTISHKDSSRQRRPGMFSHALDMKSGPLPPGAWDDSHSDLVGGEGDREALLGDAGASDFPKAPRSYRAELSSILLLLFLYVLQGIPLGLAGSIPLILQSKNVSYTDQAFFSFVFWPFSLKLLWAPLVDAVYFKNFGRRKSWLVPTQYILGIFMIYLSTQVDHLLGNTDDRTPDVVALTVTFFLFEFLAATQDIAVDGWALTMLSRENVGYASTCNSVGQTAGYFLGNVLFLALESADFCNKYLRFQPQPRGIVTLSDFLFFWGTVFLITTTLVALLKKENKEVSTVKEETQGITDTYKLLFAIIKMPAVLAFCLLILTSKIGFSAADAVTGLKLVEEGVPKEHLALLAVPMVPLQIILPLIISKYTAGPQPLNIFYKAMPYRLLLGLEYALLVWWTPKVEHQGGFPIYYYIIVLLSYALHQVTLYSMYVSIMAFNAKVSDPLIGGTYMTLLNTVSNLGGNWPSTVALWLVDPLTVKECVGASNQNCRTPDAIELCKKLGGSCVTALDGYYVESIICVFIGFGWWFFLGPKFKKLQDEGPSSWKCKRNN

BACE1 = BACE1 steady-state levels by Western blot in stably transfected CHO cells; type: cell-based, human; details: CHO cells, proteasome inhibitor for 10 hours (MG-132 5 μM, lactacystin 10 μM)
Protocol: Chinese Hamster Ovary (CHO) cells were grown in DMEM (Gibco BRL—Invitrogen, Carlsbad, Calif.) supplemented with 10% fetal bovine serum (FBS) and penicillin/streptomycin (Mediatech, Inc., Herndon, Va.) as described before (Puglielli et al., 2001, Nat. Cell Biol. 3: 905-912; Puglielli et al., 2003, J. Biol. Chem. 278: 19777-19783; Costantini et al., 2005, Biochem. J. 391: 59-67; Costantini et al., 2006, EMBO J. 25: 1997-2006). Cells were maintained in a humidified atmosphere with 5% CO2. For ceramide treatment, C6-ceramide (also simply called ceramide herein) was administered at the final concentration of 10 μM; treatment was started when cells were ˜30% confluent and carried out for 4 days, unless specified otherwise. Treatment with proteasome inhibitors MG-132 (5 μM) and lactacystin (10 μM) was done for 10 hours, as described earlier (Qing et al., 2004, FASEB J. 18: 1571-1573).
Cell lysates were prepared in GTIP buffer (100 mM Tris-pH 7.6, 20 mM EDTA, 1.5 M NaCl) with 1% Triton X-100 (Roche, Basel, Switzerland), 0.25% NP40 (Roche), and a protease inhibitor cocktail (Roche) as described before (Puglielli et al., 2003, J. Biol. Chem. 278: 19777-19783; Costantini et al., 2005, Biochem. J. 391: 59-67). Briefly, cell monolayers were washed twice in PBS, scraped, transferred into eppendorf tubes, and centrifuged at 8,000 rpm for 5 min in a table-top centrifuge. Cell pellets were then lysed in ice for 30 min with the buffer indicated above, and centrifuged again at 14,000 rpm prior to the recollection of the protein extracts. Proteins were quantitated with the BCA Protein Assay (Pierce, Rockford, Ill.) following the manufacturer's instructions.
For the immunoprecipitation of BACE1, cell lysates were pre-cleared with BioMag Protein A (Polysciences, Inc., Warrington, Pa.); beads were used at the concentration of 15 μl of the slurry per sample and separated with a magnetic holder. BACE1 was then immunoprecipitated with anti-BACE1 antibodies overnight and recovered with BioMag Protein A as above. The immunoprecipitate-bead complexes were washed 3 times in PBS and boiled for 10 min in SDS sample buffer (Invitrogen) with β-mercaptoethanol. Beads were then separated and the samples were analyzed by reducing SDS-PAGE.
Western blotting was performed on 10% Bis-Tris, 4-12% Bis-Tris, or 7% Tris-Acetate SDS-PAGE systems (NuPAGE; Invitrogen) as described (Puglielli et al., 2001, Nat. Cell Biol. 3: 905-912; Puglielli et al., 2003, J. Biol. Chem. 278: 19777-19783; Costantini et al., 2005, Biochem. J. 391: 59-67; Costantini et al., 2006, EMBO J. 25: 1997-2006). The following antibodies were used: anti-BACE1 N-terminal (monoclonal antibody; R&D Systems, Minneapolis, Minn.); anti-BACE1 C-terminal (polyclonal antibody; Abcam, Cambridge, Mass.); anti-pro-BACE1 (polyclonal; Abcam); anti-acetylated lysine (monoclonal; Abcam); anti-calreticulin (ER marker, polyclonal; Abcam); anti-58 K Golgi/formiminotransferase cyclodeaminase (Golgi marker, polyclonal; Abcam); anti-syntaxin (Golgi marker, monoclonal; Abcam); anti-EEA1 (endosomes, monoclonal; BD Transduction Laboratories, Lexington, Ky.); anti-actin (polyclonal; Cell Signaling, Danvers, Mass.). Secondary antibodies (Amersham) were used at a 1:6000 dilution. Binding was detected by chemiluminescence (LumiGLO kit; KPL, Gaithersburg, Md.). Only a representative blot of at least three different experiments is shown throughout the paper.
FIG. 1 illustrates how BACE1 is transiently acetylated in the lumen of the ER. For this experiment, CHO cells expressing human BACE1 were treated with C6-ceramide (also simply called ceramide herein) for different periods of time. BACE1 was then immunoprecipitated and analyzed by Western blotting. FIG. 1(A): CHO cells stably expressing BACE1 were treated with ceramide for the indicated time. BACE1 was immunoprecipitated from total cell lysates, separated on a 7% Tris-Acetate NuPAGE system, and then analyzed by Western blot using either anti-BACE1 or anti-acetylated lysine antibodies. […]

| SMILES | acetyl-CoA transport across the ER membrane [1] | steady-state levels of BACE1Ala (BACE1) | steady-state levels of BACE1WT (BACE1) |
| --- | --- | --- | --- |
| CC(C)(COP(=O)(O)OP(=O)(O)OC[C@H]1O[C@@H](n2cnc3c(N)ncnc32)[C@H](O)[C@@H]1OP(=O)(O)O)[C@@H](O)C(=O)NCCC(=O)NCCS [Coenzyme A] | inhibited |  |  |
| CC(=O)N[C@@H](CSC(=O)[C@]1([C@@H](O)C(C)C)NC(=O)[C@H](C)[C@@H]1O)C(=O)O [lactacystin] |  | not those of BACE1Ala | successfully increased |
| CC(C)C[C@@H](C=O)NC(=O)[C@H](CC(C)C)NC(=O)[C@H](CC(C)C)NC(=O)OCc1ccccc1 [MG-132] (Cbz-Leu-Leu-Leu-aldehyde) |  | not those of BACE1Ala | successfully increased |

— patent publication US20090042993A1, “IDENTIFICATION OF NOVEL POST-TRANSLATIONAL PROTEIN MODIFICATIONS” (priority 2007, published 2009)
